From US20220274938A1, “5-[(1S)-1-(4-BROMOPHENOXY)ETHYL]-2H-TETRAZOLE DERIVATIVES AND RELATED COMPOUNDS AS CLC-1 ION CHANNEL INHIBITORS FOR TREATING NEUROMUSCULAR DISORDERS” (NMD PHARMA A/S, priority 2019, published 2022)

Key:
CIC-1 ion channel = target: T1, CIC-1 ion channel (Rattus norvegicus, UniProt P35524); assay: Electrophysiological measurement (Gm, three micro-electrodes) of compound inhibition of CIC-1 in rat soleus muscle fibres; assay type: cell-based; settings: approx. 30° C., four increasing compound concentrations, read-out: EC50 (inhibition of CIC-1 ion channel, reduction of Gm)
T1 construct: CIC-1 channels in native tissue of rat skeletal muscle fibres; from tissue; host or cells: whole soleus muscle of 12-14 week old Wistar rats
T1 sequence (P35524 1-994): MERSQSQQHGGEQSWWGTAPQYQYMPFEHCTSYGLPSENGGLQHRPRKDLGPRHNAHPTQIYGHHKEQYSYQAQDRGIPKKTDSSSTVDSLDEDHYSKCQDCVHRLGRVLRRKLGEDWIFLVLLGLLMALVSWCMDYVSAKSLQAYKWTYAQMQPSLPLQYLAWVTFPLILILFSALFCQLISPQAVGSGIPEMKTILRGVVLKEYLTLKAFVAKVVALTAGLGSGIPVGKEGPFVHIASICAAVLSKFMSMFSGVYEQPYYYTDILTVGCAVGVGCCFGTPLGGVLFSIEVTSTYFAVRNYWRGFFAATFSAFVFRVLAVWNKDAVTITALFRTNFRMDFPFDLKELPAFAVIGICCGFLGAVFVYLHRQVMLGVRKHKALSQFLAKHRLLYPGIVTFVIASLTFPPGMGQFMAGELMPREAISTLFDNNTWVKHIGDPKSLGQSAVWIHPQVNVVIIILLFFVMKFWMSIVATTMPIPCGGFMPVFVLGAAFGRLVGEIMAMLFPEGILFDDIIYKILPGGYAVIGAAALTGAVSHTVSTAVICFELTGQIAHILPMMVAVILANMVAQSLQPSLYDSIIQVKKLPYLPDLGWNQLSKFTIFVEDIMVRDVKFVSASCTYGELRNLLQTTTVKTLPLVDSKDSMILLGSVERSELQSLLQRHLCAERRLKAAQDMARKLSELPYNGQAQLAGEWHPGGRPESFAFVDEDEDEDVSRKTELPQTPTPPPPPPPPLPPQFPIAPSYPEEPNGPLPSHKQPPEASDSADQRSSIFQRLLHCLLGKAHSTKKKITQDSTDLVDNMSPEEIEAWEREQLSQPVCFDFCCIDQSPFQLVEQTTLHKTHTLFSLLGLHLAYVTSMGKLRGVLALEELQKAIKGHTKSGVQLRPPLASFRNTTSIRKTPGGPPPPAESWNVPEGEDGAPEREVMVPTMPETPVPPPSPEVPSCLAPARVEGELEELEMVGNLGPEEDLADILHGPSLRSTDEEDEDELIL
From the text: FIG. 1. […] Please note that the drawing illustrates only the impaled fibre although it is part of an intact muscle that contains many such fibres. All electrodes recorded the membrane potential of the fibre and the two peripheral electrodes were used to inject current (−30 nA, 50 ms). The electrodes were inserted with known inter-electrode distances (X1, X2 and X3). After insertion, current was passed first via the V1 electrode and then via the V3 electrode. The resulting deflections in the membrane voltage were measured by the other electrodes. The steady state deflections in membrane potential were measured and divided by the magnitude of the injected current (−30 nA) to obtain transfer resistances. These were next plotted against inter-electrode distances, and fitted to an exponential function (Panel B), from which Gm could be calculated using linear cable theory. The approach described in panel A and B, was repeated for several muscle fibres in the muscle during exposure at increasing concentrations of compound E-8, with approx. 10 fibres at each concentration. Average Gm at each concentration was plotted as a function of compound concentration in panel C, and fitted to a 4-parameter sigmoidal function from which the EC50 value for the compound was obtained (dashed line)
Apparent CIC-1 affinity was reported by the concentration of compound at which 50% of the compound's full inhibition of CIC-1 was observed (EC50).
CIC-1 Cl^− ion channels generate around 80% of the total membrane conductance (Gm) in resting skeletal muscle fibres of most animals including rat and human (Bretag, A H. Muscle chloride channels. Physiological Reviews, 1987, 67, 618-724). […] CIC-1 inhibition would in such recordings be reflected by a reduction of Gm.
Experimentally, Gm was measured in individual fibres of whole rat soleus muscles using a three micro-electrodes technique described in this example and in full detail elsewhere (Riisager et al., Determination of cable parameters in skeletal muscle fibres during repetitive firing of action potentials. Journal of Physiology, 2014, 592, 4417-4429). Briefly, intact rat soleus muscles were dissected out from 12-14 week old Wistar rats and placed in an experimental chamber that was perfused with a standard Krebs Ringer solution containing 122 mM NaCl, 25 mM NaHCO3, 2.8 mM KCl, 1.2 mM KH2PO4, 1.2 mM MgSO4, 1.3 mM CaCl2, 5.0 mM D-glucose. During experiments, the solution was kept at approx. 30° C. and continuously equilibrated with a mixture of 95% O2 and 5% CO2, pH˜7.4. The experimental chamber was placed in Nikon upright microscope that was used to visualize individual muscle fibres and the three electrodes (glass pipettes filled with 2 M potassium citrate). For Gm measurements, the electrodes were inserted into the same fibre with known inter-electrode distances of 0.35-0.5 mm (V1-V2, X1) and 1.1-1.5 mm (V1-V3, X3) (FIG. 1A). The membrane potential of the impaled muscle fibre was recorded by all electrodes. Two of the electrodes were furthermore used to inject 50 ms current pulses of −30 nA. […] The steady state voltage deflection at each distance was divided by the magnitude of current injected (−30 nA) and the resulting transfer resistances were plotted against inter-electrode distance and the data was fitted to a mono-exponential function from which Gm could be calculated using linear cable theory (FIG. 1B).
To establish a dose response relationship, Gm was first determined in 10 muscle fibres in the absence of compound and then at four increasing compound concentrations with Gm determinations in 5-10 fibres at each concentration. The average Gm values at each concentration were plotted against compound concentration and the data was fitted to sigmoidal function to obtain an EC50 value (FIG. 1C).

[1] = test system: isolated rat soleus muscles; assay: Measurement of force in an in vitro model: isolated rat soleus nerve-muscle preparation with tubocurarine; assay type: cell-based; settings: 50 μM test compound, after 40 mins of compound exposure, 115 nM tubocurarine for 90 mins; for activation at 50 µM: Rattus norvegicus, 40 min, read-out: Point increase (%) of initial force that was restored
Procedure: FIG. 2. […] Force traces from a representative muscle stimulated to contract in 1) control condition before addition of neuromuscular blocking agent, 2) the force response to stimulation after 90 minutes incubation with Tubocurarine. […] The traces presented in panel A (1, 2, 3), correspond to the dotted lines in panel B, respectively.
Recovery of force is quantified as the percentage of the force prior to tubocurarine that is recovered by the compound.
The current disclosure relates to compounds that inhibit CIC-1 ion channels and increase muscle excitability and thereby improve muscle function in clinical conditions where muscle activation is failing. Such conditions result in loss of contractile function of skeletal muscle, weakness and excessive fatigue. In this series of experiments the compounds were tested for their ability to restore contractile function of isolated rat muscle when the neuromuscular transmission had been compromised akin to neuromuscular disorders.
Experimentally, soleus muscles from 4-5 week old rats were isolated with the motor nerve remaining attached. The nerve-muscle preparations were mounted in experimental setups that enabled electrical stimulation of the motor nerve. Stimulation of the motor nerve led to activation of the muscle fibres and ensuing force production that was recorded. The nerve-muscle preparations were also in these experiments incubated in the standard Krebs Ringer (see example 5) and the solution was heated to 30° C. and continuously equilibrated with a mixture of 95% O2 and 5% CO2, pH˜7.4.
After mounting the nerve-muscle preparation in the experimental setup, the contractile function of the muscle was initially assessed under the control conditions (FIG. 2A). […] The experimental condition mimics the failing neuromuscular transmission in a range of neuromuscular disorders. After addition of tubocurarine the contractile force declined over the next 90 mins to 10-50% of the control force. 50 μM of the test compound was then added and the contractile force recovered despite the continued presence of tubocurarine. To quantify the ability of the compound to restore force the percentage of the initial force that was restored was determined after 40 mins of compound exposure (FIG. 2B) and the point increase is reported in Table 3.

Compound	EC50 (CIC-1 ion channel) [µM]	activation at 50 µM [1] [%]	other results
C/C(=N\O)NC(=O)[C@@H](Oc1ccc(Br)cc1F)C(C)C [Compound A-4, (2S)-2-(4-bromo-2-fluorophenoxy)-N-[1(hydroxyimino)ethyl]-3-methylbutanamide]	2.2	–	–
CC(=NO)NC(=O)[C@H](C)Oc1ccc(Br)cc1F [Compound A-5, (2S)-2-(4-bromo-2-fluorophenoxy)-N-[1-(hydroxyimino)ethyl]ropanamide]	–	–	Point increase (%) of initial force that was restored [1]: 30%
CC(=NO)NC(=O)[C@H](C)Oc1ccc(Br)cc1 [Compound A-6, (2S)-2-(4-bromophenoxy)-N-[1-(hydroxyimino)ethyl]propanamide]	2	–	–
C[C@H](Oc1ccc(Br)cc1C(C)(F)F)C(=O)NC#N [Compound B-6]	–	–	Point increase (%) of initial force that was restored [1]: 15%
CCC(F)(F)c1cc(Br)c(F)cc1O[C@@H](C)C(=O)NC#N [Compound B-7, (2S)-2-[4-bromo-2-(1,1-difluoropropy1)-5-fluorophenoxy]-N-cyanopropanamide]	–	–	Point increase (%) of initial force that was restored [1]: 37%
CC(=O)N1CC(ON(C(C)=O)C(=O)[C@H](C)Oc2ccc(Cl)cc2)C1 [Compound C-3, (2S)-N-acetyl-N-[(1-acetylazetidin-3-yl)oxy]-2-(4-chlorophenoxy)propanamide]	–	29	–
CC(=O)N1CCC(ON(C(C)=O)C(=O)[C@H](C)Oc2ccc(Br)cc2)C1 (stereo partly drawn) [Compound C-12, (2S)-N-acetyl-N-[(1-acetylpyrrolidin-3-yl)oxy]-2-(4-bromophenoxy)propanamide]	–	18	–
CC(=O)N1CCC(ON(C(C)=O)C(=O)[C@H](C)Oc2ccc(Cl)cc2)C1 (stereo partly drawn) [Compound C-16, (2S)-N-acetyl-N-[(1-acetylpyrrolidin-3-yl)oxy]-2-(4-chlorophenoxy)propanamide]	–	23	–
C[C@H](Oc1ccc(Br)cc1F)C(=O)NOC1CCC1 [Compound C-31, (2S)-2-(4-bromo-2-fluorophenoxy)-N-cyclobutoxypropanamide]	–	56	–
C[C@H](Oc1ccc(Cl)cc1)C(=O)NOCc1ccon1 [Compound C-39, (2S)-2-(4-chlorophenoxy)-N-[(1,2-oxazol-3-yl)methoxy]propanamide]	–	49	–
CONC(=O)[C@H](C)Oc1ccc(Cl)cc1F [Compound C-40, (2S)-2-(4-chloro-2-fluorophenoxy)-N-methoxypropanamide]	–	24	–
C[C@H](Oc1ccc(Cl)cc1)C(=O)NOC(C)(C)C [Compound C-43, (2S)-N-(tert-butoxy)-2-(4-chlorophenoxy)propanamide]	–	20	–
C[C@H](Oc1ccc(Cl)cc1)C(=O)NOC1CCCCO1 (stereo partly drawn) [Compound C-65, (2S)-2-(4-chlorophenoxy)-N-(oxan-2-yloxy)propanamide]	–	26	–
C[C@H](Oc1ccc(Cl)cc1)C(=O)NOCc1nccs1 [Compound C-66, (2S)-2-(4-chlorophenoxy)-N-[(1,3-thiazol-2-yl)methoxy]propanamide]	–	21	–
C[C@H](Oc1ccc(Cl)cc1)C(=O)NOC1CC(F)(F)C1 [Compound C-67, (2S)-2-(4-chlorophenoxy)-N-(3,3-difluorocyclobutoxy)propanamide]	–	23	–
C[C@H](Oc1ccc(Cl)cc1)C(=O)NOC1CCCC1 [Compound C-70, (2S)-2-(4-chlorophenoxy)-N-(cyclopentyloxy)propanamide]	4.6	–	–
C[C@H](Oc1ccc(Cl)cc1)C(=O)NOCCC1CCCC1 [Compound C-71, (2S)-2-(4-chlorophenoxy)-N-(2-cyclopentylethoxy)propanamide]	–	25	–
CCONC(=O)[C@H](C)Oc1ccc(Cl)cc1 [Compound C-82, (2S)-2-(4-chlorophenoxy)-N-ethoxypropanamide]	9.7	–	–
CCCONC(=O)[C@H](C)Oc1ccc(Cl)cc1 [Compound C-83, (2S)-2-(4-chlorophenoxy)-N-propoxypropanamide]	3.5	–	–
CC(C)ONC(=O)[C@H](C)Oc1ccc(Cl)cc1 [Compound C-84, (2S)-2-(4-chlorophenoxy)-N-(propan-2-yloxy)propanamide]	11.5	–	–
FCC[C@H](Oc1ccc(Br)cc1-c1ccon1)c1nn[nH]n1 [Compound E-1]	–	21	–
C[C@H](Oc1ccc(Br)cc1)c1nn[nH]n1 [Compound E-6, 5-[(1S)-1-(4-bromophenoxy)ethyl]-2H-1,2,3,4-tetrazole]	–	21	–
C[C@H](Oc1ccc(Br)cc1-c1ccon1)c1nnn[nH]1 [Compound E-7]	6	–	–
C=Cc1cc(Cl)ccc1O[C@@H](C)c1nnn[nH]1 [Compound E-12, 5-[(1S)-1-(4-chloro-2-ethenylphenoxy)ethyl]-1H-1,2,3,4-tetrazole]	–	21	–
C[C@H](Oc1ccc(Cl)cc1)c1nnn[nH]1 [Compound E-15, 5-[(1S)-1-(4-chlorophenoxy)ethyl]-1H-1,2,3,4-tetrazole]	19.9	–	–
